# Assay results as given in ChEMBL document CHEMBL1138646, “Carbonic anhydrase inhibitors: inhibition of the membrane-bound human isozyme IV with anions” (Bioorg Med Chem Lett, 2004).
# Where “and” joins values, the source holds several entries; their conditions need not be identical. Equal values may be shown once.
# Key:
# Carbonic anhydrase V [1] = molecular target: T1, Carbonic anhydrase V (Homo sapiens, UniProt Q9Y2D0+P35218); format: protein assay
# Description: Inhibition constant of anion against human carbonic anhydrase isozyme hCA V
# Carbonic anhydrase 9 = Carbonic anhydrase 9 (Homo sapiens, UniProt Q16790)
# Description: Inhibition constant of anion against human carbonic anhydrase isozyme hCA IX
# Carbonic anhydrase 4 [2] = molecular target: T2, Carbonic anhydrase 4 (Homo sapiens, UniProt P22748)
# T2 sequence (P22748 whole entry): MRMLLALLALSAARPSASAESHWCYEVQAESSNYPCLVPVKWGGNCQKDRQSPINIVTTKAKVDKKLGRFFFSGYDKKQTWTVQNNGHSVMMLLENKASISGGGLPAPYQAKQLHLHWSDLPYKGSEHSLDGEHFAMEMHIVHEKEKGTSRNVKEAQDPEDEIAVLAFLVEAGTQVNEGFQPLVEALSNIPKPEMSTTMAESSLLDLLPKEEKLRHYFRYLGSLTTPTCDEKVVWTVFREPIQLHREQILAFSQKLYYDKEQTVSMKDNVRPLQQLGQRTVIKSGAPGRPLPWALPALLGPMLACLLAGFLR
# Description: Inhibition constant of anion against human carbonic anhydrase isozyme hCA IV
# Carbonic anhydrase V [3] = molecular target: T1, Carbonic anhydrase V; assay: Inhibition constant against human carbonic anhydrase isozyme hCA V; format: protein assay
# Carbonic anhydrase 4 [4] = molecular target: T2, Carbonic anhydrase 4; assay: Inhibition constant against human carbonic anhydrase isozyme hCA IV
SMILES,Ki (Carbonic anhydrase V [1]; read-out: Ki),Ki (Carbonic anhydrase 9) [mM],Ki (Carbonic anhydrase 4 [2]),Ki (Carbonic anhydrase V [1]) [mM],Ki (Carbonic anhydrase V [3]) [mM],Ki (Carbonic anhydrase 4 [4]) [mM]
O=C(O)O [BICARBONATE],82 mM and 95 mM,13,6.6 mM and 5.7 mM,–,–,–
Br [BROMIDE],50 mM,16,0.09 mM,–,–,–
N#CO [CYANATE],0.02 mM,0.04,0.61 mM,–,–,–
F [FLUORIDE ION],241 mM,48,0.07 mM,–,–,–
Cl [HYDROCHLORIC ACID],–,33,0.09 mM,156,–,–
S [HYDROGEN SULFIDE],–,0.007,3.9 mM,0.02,–,–
I [IODIDE],–,7,0.08 mM,25,–,–
O=[N+]([O-])O [NITRIC ACID],–,46,58.7 mM,16,–,–
O=NO [NITROUS ACID],16 mM,–,30.8 mM,–,–,–
OB(O)c1ccccc1 [PHENYLBORONIC ACID],–,–,–,–,4.5,0.00088
NS(=O)(=O)O [SULFAMATE],–,–,–,–,0.12,0.00093
O=S(=O)(O)O [SULFURIC ACID],–,–,9 mM,680,–,–
O=S(O)O [SULFUROUS ACID],65 mM,–,13.2 mM,–,–,–
N#CS [THIOCYANIC ACID],0.74 mM,0.13,39 mM,–,–,–
